# US20250017935A1, “7,8-DIHYDRO-5H-1,6-NAPHTHYRIDINE DERIVATIVES AS POSITIVE ALLOSTERIC MODULATORS OF THE MUSCARINIC ACETYLCHOLINE RECEPTOR M4 FOR TREATING NEUROLOGICAL AND PSYCHIATRIC DISORDERS” (Vanderbilt University, priority 2021, published 2025)
# Biological target: T1, Human M4 (Homo sapiens, UniProt P08173)
# T1 construct: expressed in transfected cells; host or cells: CHO-K1 (ATCC), stably expressing hM4 and Gqi5
# T1 sequence (P08173 1-479): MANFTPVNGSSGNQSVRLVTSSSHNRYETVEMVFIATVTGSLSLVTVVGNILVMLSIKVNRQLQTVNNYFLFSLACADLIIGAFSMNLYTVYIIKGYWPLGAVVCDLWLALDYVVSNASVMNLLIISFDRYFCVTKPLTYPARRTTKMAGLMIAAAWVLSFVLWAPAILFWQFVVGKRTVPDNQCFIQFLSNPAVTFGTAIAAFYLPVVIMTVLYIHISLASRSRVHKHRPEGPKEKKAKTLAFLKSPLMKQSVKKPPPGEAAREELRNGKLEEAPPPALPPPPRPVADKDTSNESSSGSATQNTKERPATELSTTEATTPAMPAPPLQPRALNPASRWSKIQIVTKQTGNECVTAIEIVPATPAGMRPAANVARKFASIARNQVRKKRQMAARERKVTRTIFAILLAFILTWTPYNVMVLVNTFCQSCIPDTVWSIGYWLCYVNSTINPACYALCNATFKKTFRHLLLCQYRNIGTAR
# Experiment: mAChR M4 cell-based functional assay (calcium flux, potentiation of EC20 acetylcholine response) in hM4-Gqi5 CHO-K1 cells
# Details: for Emax at 30 µM: % ACh maximum at 30 μM, human M4 CHO-K1 cells; for EC50: CHO-K1 cells transfected with human M4 and Gqi5, positive allosteric modulator activity, EC20 acetylcholine
# Procedure: Human M4 cDNA, along with the chimeric G protein Gqi5, were transfected into Chinese hamster ovary (CHO-K1) cells purchased from the American Type Culture Collection using commercially available Lipofectamine 2000 transfection reagent (Dalby, B. et al., Methods (2004) 33(2), 95-103). hM4-Gqi5 cells were grown in Ham's F-12 medium containing 10% heat-inactivated fetal bovine serum (FBS), 20 mM HEPES, 50 μg/mL G418 sulfate (CAS #108321-42-2), and 500 μg/mL Hygromycin B. rM4-Gqi5 cells were grown in DMEM containing 10% heat-inactivated FBS, 20 mM HEPES, 400 μg/mL G418 sulfate, and 500 μg/mL Hygromycin B.
# For high throughput measurement of agonist-evoked increases in intracellular calcium, CHO-K1 cells stably expressing muscarinic receptors were plated in growth medium lacking G418 sulfate and hygromycin at 15,000 cells/20 μL/well in Greiner 384-well black-walled, tissue culture (TC)-treated, clear-bottom plates (VWR). Cells were incubated overnight at 37° C. and 5% CO2. The next day, cells were washed using an ELX 405 (BioTek) with assay buffer; the final volume was then aspirated to 20 μL. Next, 20 μL of a 2.3 μM stock of Fluo-4/acetoxymethyl ester (Invitrogen, Carlsbad, CA), prepared as a 2.3 mM stock in DMSO and mixed in a 1:1 ratio with 10% (w/v) Pluronic F-127 and diluted in assay buffer, was added to the wells and the cell plates were incubated for 50 minutes at 37° C. and 5% CO2. Dye was removed by washing with the ELX 405 and the final volume was aspirated to 20 μL. Compound master plates were formatted in an 11 point concentration-response curve (CRC) format (1:3 dilutions) in 100% DMSO with a starting concentration of 10 mM using a BRAVO liquid handler (Agilent). Test compound CRCs were then transferred to daughter plates (240 nL) using the Echo acoustic plate reformatter (Labcyte, Sunnyvale, CA) and then diluted into assay buffer (40 μL) to a 2× stock using a Thermo Fisher Combi (Thermo Fisher Scientific, Waltham, MA).
# Calcium flux was measured using the Functional Drug Screening System (FDSS) 6000 or 7000 (Hamamatsu Corporation, Tokyo, Japan) as an increase in the fluorescent static ratio. Compounds were applied to cells (20 μL, 2×) using the automated system of the FDSS at 2-4 seconds into the protocol and the data were collected at 1 Hz. […] Agonist activity was analyzed as a concentration-dependent increase in calcium mobilization upon compound addition. Positive allosteric modulator activity was analyzed as a concentration-dependent increase in the EC20 acetylcholine response. With the acetylcholine EC20 set as baseline, the test compound EC50 is determined as the concentration that produces an increase above baseline of 50% of the maximum increase in acetylcholine response elicted by the test compound. Antagonist activity was analyzed as a concentration-dependent decrease in the EC80 acetylcholine response. Concentration-response curves were generated using a four-parameter logistical equation in XLFit curve fitting software (IDBS, Bridgewater, NJ) for Excel (Microsoft, Redmond, WA) or Prism (GraphPad Software, Inc., San Diego, CA).
# Compounds were synthesized as described above. Activity (EC50 and Emax) was determined in the mAChR M4 cell-based functional assay as described above and the data are shown in Table 5. The compound numbers correspond to the compound numbers used in Examples 1-13 and Tables 1, 2, and 3.
Compound,Emax at 30 µM,EC50
"Cc1sc2ncnc(N3CCc4ncc(C(F)(F)F)cc4C3)c2c1C [Compound 1, 5,6-dimethyl-4-[3-(trifluoromethyl)-7,8-dihydro-5H-1,6-naphthyridin-6-yl]thieno[2,3-d]pyrimidine]",85%,610 nM
"Cc1cc2c(N3CCc4ncc(N5CCCn6nccc65)cc4C3)ncnc2s1 [Compound 2, 4-[3-(6,7-dihydro-5H-pyrazolo[1,5-a]pyrimidin-4-yl)-7,8-dihydro-5H-1,6-naphthyridin-6-yl]-6-methyl-thieno[2,3-d]pyrimidine]",106%,30 nM
"Cc1cc2c(N3CCc4ncc(Oc5ccccc5F)cc4C3)ncnc2s1 [Compound 3, 4-[3-(2-fluorophenoxy)-7,8-dihydro-5H-1,6-naphthyridin-6-yl]-6-methyl-thieno[2,3-d]pyrimidine]",80%,630 nM
"Cc1nc(N2CCc3ncc(C(F)(F)F)cc3C2)c2c(C)c(C)sc2n1 [Compound 7, 2,5,6-trimethyl-4-[3-(trifluoromethyl)-7,8-dihydro-5H-1,6-naphthyridin-6-yl]thieno[2,3-d]pyrimidine]",88%,3280 nM
"Cc1cc2c(N3CCc4ncc(C(F)(F)F)cc4C3)ncnc2s1 [Compound 9, 6-methyl-4-[3-(trifluoromethyl)-7,8-dihydro-5H-1,6-naphthyridin-6-yl]thieno[2,3-d]pyrimidine]",76%,30 nM
"FC(F)(F)c1cnc2c(c1)CN(c1ncnc3ccsc13)CC2 [Compound 10, 4-[3-(trifluoromethyl)-7,8-dihydro-5H-1,6-naphthyridin-6-yl]thieno[3,2-d]pyrimidine]",79%,120 nM
"Cc1csc2c(N3CCc4ncc(C(F)(F)F)cc4C3)ncnc12 [Compound 11, 7-methyl-4-[3-(trifluoromethyl)-7,8-dihydro-5H-1,6-naphthyridin-6-yl]thieno[3,2-d]pyrimidine]",63%,500 nM
"Cc1cc2c(N3CCc4ncc(-c5cn(C)nc5C)cc4C3)ncnc2s1 [Compound 12, 4-[3-(1,3-dimethylpyrazol-4-yl)-7,8-dihydro-5H-1,6-naphthyridin-6-yl]-6-methyl-thieno[2,3-d]pyrimidine]",74%,230 nM
"Cc1cc2c(N3CCc4ncc(N5CCOc6ncccc65)cc4C3)ncnc2s1 [Compound 13, 1-[6-(6-methylthieno[2,3-d]pyrimidin-4-yl)-7,8-dihydro-5H-1,6-naphthyridin-3-yl]-2,3-dihydropyrido[2,3-b][1,4]oxazine]",121%,70 nM
"Cc1cc2c(N3CCc4ncc(-c5cnn(C6CC6)c5)cc4C3)ncnc2s1 [Compound 20, 4-[3-(1-cyclopropylpyrazol-4-yl)-7,8-dihydro-5H-1,6-naphthyridin-6-yl]-6-methyl-thieno[2,3-d]pyrimidine]",91%,470 nM
"Cc1csc2c(N3CCc4ncc(N5CCCn6nccc65)cc4C3)ncnc12 [Compound 22, 4-[3-(6,7-dihydro-5H-pyrazolo[1,5-a]pyrimidin-4-yl)-7,8-dihydro-5H-1,6-naphthyridin-6-yl]-7-methyl-thieno[3,2-d]pyrimidine]",85%,280 nM
"Cc1csc2c(N3CCc4ncc(N5CCOc6ncccc65)cc4C3)ncnc12 [Compound 24, 1-[6-(7-methylthieno[3,2-d]pyrimidin-4-yl)-7,8-dihydro-5H-1,6-naphthyridin-3-yl]-2,3-dihydropyrido[2,3-b][1,4]oxazine]",70%,220 nM

# Now from value to compound:
Emax at 30 µM,EC50,Compound
43%,770 nM,"Cc1csc2c(N3CCc4ncc(-c5cnn(C6CC6)c5)cc4C3)ncnc12 [Compound 4, 4-[3-(1-cyclopropylpyrazol-4-yl)-7,8-dihydro-5H-1,6-naphthyridin-6-yl]-7-methyl-thieno[3,2-d]pyrimidine]"
35%,310 nM,"Cc1ncc(-c2cnc3c(c2)CN(c2ncnc4c(C)csc24)CC3)s1 [Compound 5, 7-methyl-4-[3-(2-methylthiazol-5-yl)-7,8-dihydro-5H-1,6-naphthyridin-6-yl]thieno[3,2-d]pyrimidine]"
45%,100 nM,"Cc1ncc(-c2cnc3c(c2)CN(c2ncnc4sccc24)CC3)s1 [Compound 6, 4-[3-(2-methylthiazol-5-yl)-7,8-dihydro-5H-1,6-naphthyridin-6-yl]thieno[2,3-d]pyrimidine]"
78%,30 nM,"Cc1csc2ncnc(N3CCc4ncc(C(F)(F)F)cc4C3)c12 [Compound 8, 5-methyl-4-[3-(trifluoromethyl)-7,8-dihydro-5H-1,6-naphthyridin-6-yl]thieno[2,3-d]pyrimidine]"
97%,190 nM,"Cc1ccc(-c2cnc3c(c2)CN(c2ncnc4sc(C)cc24)CC3)cn1 [Compound 14, 6-methyl-4-[3-(6-methyl-3-pyridyl)-7,8-dihydro-5H-1,6-naphthyridin-6-yl]thieno[2,3-d]pyrimidine]"
45%,550 nM,"Cc1ccc(-c2cnc3c(c2)CN(c2ncnc4c(C)csc24)CC3)cn1 [Compound 15, 7-methyl-4-[3-(6-methyl-3-pyridyl)-7,8-dihydro-5H-1,6-naphthyridin-6-yl]thieno[3,2-d]pyrimidine]"
91%,60 nM,"Cc1csc2ncnc(N3CCc4ncc(N5CCOc6ncccc65)cc4C3)c12 [Compound 16, 1-[6-(5-methylthieno[2,3-d]pyrimidin-4-yl)-7,8-dihydro-5H-1,6-naphthyridin-3-yl]-2,3-dihydropyrido[2,3-b][1,4]oxazine]"
79%,180 nM,"Cc1ccc(-c2cnc3c(c2)CN(c2ncnc4scc(C)c24)CC3)cn1 [Compound 17, 5-methyl-4-[3-(6-methyl-3-pyridyl)-7,8-dihydro-5H-1,6-naphthyridin-6-yl]thieno[2,3-d]pyrimidine]"
72%,470 nM,"Cc1ncc(-c2cnc3c(c2)CN(c2ncnc4scc(C)c24)CC3)s1 [Compound 18, 5-methyl-4-[3-(2-methylthiazol-5-yl)-7,8-dihydro-5H-1,6-naphthyridin-6-yl]thieno[2,3-d]pyrimidine]"
58%,1840 nM,"Cc1ccc(Oc2cnc3c(c2)CN(c2ncnc4scc(C)c24)CC3)c(F)c1 [Compound 19, 4-[3-(2-fluoro-4-methyl-phenoxy)-7,8-dihydro-5H-1,6-naphthyridin-6-yl]-5-methyl-thieno[2,3-d]pyrimidine]"
88%,250 nM,"Cc1cc2c(N3CCc4ncc(-c5cnc(C)s5)cc4C3)ncnc2s1 [Compound 21, 6-methyl-4-[3-(2-methylthiazol-5-yl)-7,8-dihydro-5H-1,6-naphthyridin-6-yl]thieno[2,3-d]pyrimidine]"
59%,560 nM,"Cc1nn(C)cc1-c1cnc2c(c1)CN(c1ncnc3c(C)csc13)CC2 [Compound 23, 4-[3-(1,3-dimethylpyrazol-4-yl)-7,8-dihydro-5H-1,6-naphthyridin-6-yl]-7-methyl-thieno[3,2-d]pyrimidine]"
